Patent publication US20210361618A1, “TRIPLET COMBINATION FORMULATIONS AND METHODS FOR TREATING OR REDUCING THE RISK OF CARDIOVASCULAR DISEASE” (priority 2017, published 2021)

Assays:
LDL-C = experiment: Integrated analysis of six Phase 2 studies of Bempedoic acid; type: in vivo, human; settings: for LDL-C placebo-adjusted LS means for percent change from baseline: integrated analysis of six Phase 2 studies
Protocol: Doses of Bempedoic acid ranging from 40 to 240 mg/day have been evaluated in the Phase 2 program. Based on data from the integrated analysis of safety and efficacy, observed values and percent change from baseline in the primary efficacy endpoint, LDL-C, together with a positive safety profile, support the choice of the 180-mg dose for the Phase 3 studies. […] Overall, balancing efficacy and safety, the 180-mg dose was chosen for the Phase 3 program.

monkey = experiment: Preclinical monkey studies (hypoglycemia and metabolic acidosis)
patients = experiment: Phase 1 and 2 clinical trials of bempedoic acid: adverse events of special interest; type: in vivo, human; settings: Phase 1 or 2 clinical trials to date

CC(C)(CCCCCC(O)CCCCCC(C)(C)C(=O)O)C(=O)O [Bempedoic acid, 8-hydroxy-2,2,14,14 tetramethylpentadecanedioic acid]
safety profile of the 180-mg dose (LDL-C; Phase 2 program, 180 mg): excellent safety profile | LDL-C placebo-adjusted LS means for percent change from baseline (LDL-C; 180 mg on top of stable statin therapy): ~22% | LDL-C placebo-adjusted LS means for percent change from baseline (LDL-C; Bempedoic acid 180 mg, monotherapy or with Ezetimibe 10 mg): approximately 32% | outcome of hypoglycemia and metabolic acidosis (monkey): monkey deaths | cases of hypoglycemia or metabolic acidosis (patients): No cases
